In the supplement of paper PMC10307832:

Columns and labels:
Assay in all cases: relative viability (nuclei count vs DMSO), 5 days (fraction); higher = more cells survive
Trametinib + Tozasertib = compound: CC(=O)Nc1cccc(-n2c(=O)n(C3CC3)c(=O)c3c(Nc4ccc(I)cc4F)n(C)c(=O)c(C)c32)c1 [Trametinib] + Cc1cc(Nc2cc(N3CCN(C)CC3)nc(Sc3ccc(NC(=O)C4CC4)cc3)n2)n[nH]1 [Tozasertib] (partner 0.1 µM)
Outline: (§1)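 The day after seeding in 1536-well plates, lung cancer cell lines were treated by pin tool with a single drug, or with a fixed anchor-drug dose together with five library-drug doses (not always all listed) in √10 steps. After 5 days, a combined fix-and-stain solution (final 0.05% Triton X-100, 1% formaldehyde, 1 ug/ml Hoechst) was added. Nuclei counted on 4× images gave relative viability as treated counts over vehicle counts, reported as the median of duplicate plates.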

Trametinib + Alpelisib = compound: CC(=O)Nc1cccc(-n2c(=O)n(C3CC3)c(=O)c3c(Nc4ccc(I)cc4F)n(C)c(=O)c(C)c32)c1 [Trametinib] + Cc1nc(NC(=O)N2CCC[C@H]2C(N)=O)sc1-c1ccnc(C(C)(C)C(F)(F)F)c1 [Alpelisib] (partner 2 µM)
Outline: as §1

[1] = compound: CN1C=C(C2=CC=CC=C21)/C=C\3/C4=C(C=CC=N4)NC3=O + CC1(C)CCC(c2ccc(Cl)cc2)=C(CN2CCN(c3ccc(C(=O)NS(=O)(=O)c4ccc(N[C@H](CCN5CCOCC5)CSc5ccccc5)c(S(=O)(=O)C(F)(F)F)c4)cc3)CC2)C1 [Navitoclax] (partner 0.5 µM)
Outline: as §1

[2] = compound: CN1C=C(C2=CC=CC=C21)/C=C\3/C4=C(C=CC=N4)NC3=O + O=C(c1cc(Cc2n[nH]c(=O)c3ccccc23)ccc1F)N1CCN(C(=O)C2CC2)CC1 [Olaparib] (partner 8 µM)
Outline: as §1

Cell Line	relative viability (Trametinib + Tozasertib; first compound 0.0025 µM)	relative viability (Trametinib + Tozasertib; first compound 0.007906 µM)	relative viability (Trametinib + Tozasertib; first compound 0.025 µM)	relative viability (Trametinib + Tozasertib; first compound 0.07906 µM)	relative viability (Trametinib + Tozasertib; first compound 0.25 µM)	relative viability (Trametinib + Alpelisib; first compound 0.0025 µM)	relative viability (Trametinib + Alpelisib; first compound 0.007906 µM)	relative viability (Trametinib + Alpelisib; first compound 0.025 µM)	relative viability (Trametinib + Alpelisib; first compound 0.07906 µM)	relative viability (Trametinib + Alpelisib; first compound 0.25 µM)	relative viability ([1]; first compound 0.02 µM)	relative viability ([1]; first compound 0.06325 µM)	relative viability ([1]; first compound 0.2 µM)	relative viability ([1]; first compound 0.6325 µM)	relative viability ([1]; first compound 2 µM)	relative viability ([2]; first compound 0.02 µM)	relative viability ([2]; first compound 0.6325 µM)	relative viability ([2]; first compound 2 µM)	relative viability ([2]; first compound 0.06325 µM)	relative viability ([2]; first compound 0.2 µM)
EKVX	0.387	0.397	0.335	0.227	0.26	0.832	0.638	0.629	0.444	0.343	0.909	0.774	0.811	0.7	0.772	0.892	0.8	0.717		
NCI-H596	0.867	0.733	0.602	0.784	0.464	0.34	0.422	0.311	0.371	0.342	0.957	0.925	0.901	0.779	0.902	0.545	0.558	0.554	0.744	0.648
NCI-H1975	0.716	0.703	0.478	0.338	0.29	0.547	0.415	0.301	0.223	0.268	0.955	1.05	1.07	0.937	0.94	0.803	0.61	0.47	0.737	0.674
NCI-H2170	0.733	0.702	0.466	0.709	0.616	0.828	0.721		0.669	0.638		0.604	0.527	0.543	0.541	0.652	0.517	0.578	0.559	0.628
NCI-H1666	0.589	0.546	0.602	0.541	0.475	0.697	0.501	0.465	0.331	0.306	1.19	0.883	0.879	0.761	0.542	0.749	0.708	0.714	0.735	0.706
PC-3 [JPC-3]	0.864	0.742	0.795	0.629	0.563	0.998	0.968	0.864	0.806	0.511	0.782	0.743	0.788	0.812	0.683	1.03	1.2	1.16	1.1	1.12
NCI-H1755	0.544	0.537	0.604	0.63	0.545	0.798	0.83	0.799	0.802	0.753	0.836	1	0.98	0.909	0.885	0.903	0.699	0.681	0.946	0.83
RERF-LC-KJ	0.493	0.545	0.539	0.509	0.387	0.775	0.759	0.645	0.657	0.472	1.03	0.937	0.707	0.691	0.51	0.736	0.528	0.468	0.681	0.763
